Data as given in EP1002543A1, “Pharmaceutical compositions for the therapy of glioma or prostate cell proliferative disorders containing cyclic rgd compounds” (JCR PHARMACEUTICALS CO., LTD., priority 1998, dated 2000).

Key:
U-87MG cells [1] = experiment: U-87MG-induced spheroid formation in liquid culture; assay type: cell-based, Human; details: treated again after 48 hours, further 72 hours
Method: U-87MG cells can be grown either as a monolayer or as multicellular three-dimensional spheroids (500-1,000 µm) in liquid culture. Since spheroids closely resemble the architecture of a tumor in vivo, the cultures were contacted with cRGD or RGD to determine if treatment had any effect on spheroid formation. U-87MG cells (5 ×10^5-1×10^6) were mixed with either cRGD (100µg) or RGD (100µg) peptide or PBS (as untreated control) and incubated at 4° C for 30 minutes. Treated and untreated cells were then seeded onto 24-well plate and incubated further at 37° C. Forty eight hours later; the treated cells were treated again with respective peptides and incubated for 72 hours.
In a second study, U-87MG cells were allowed to grow (in a 24-well plate) for 24 hours before the addition of cyclic (50 µg) or linear (50 µg) peptide. One set of cells, with PBS alone, served as untreated control. Forty eight hours later, the cells were treated again with respective cRGD (50 µg) or RGD (50 µg) peptides and incubated for an additional 72 hours.

U-87MG cells [2] = experiment: Effect of cRGD and RGD peptides on growth of human glioma cells (viable cell count by trypan blue dye exclusion; morphology under microscope); assay type: cell-based; details: 18 hours; for % inhibition: viable cells vs untreated control
Method: (§1) Human glioblastoma, U-87MG, and U-373MG cells were obtained from the American Type Culture Collection, Rockville, MD and grown in Dulbecco's modified Eagle's medium supplemented with 10% fetal calf serum (Hyclone Laboratories Inc. Logan, UT), sodium pyruvate (55 mg/L), sodium bicarbonate (1.2 g/L), HEPES (1.2 g/L) and gentamicin (50 µg/ml). U-251MG cells were provided by Dr. G.Y. Gillespie, University of Alabama at Birmingham, Alabama, and were grown in the above media.
(§2) Semi-confluent monolayers of U-87MG, U-251MG and U-373MG cells were treated with different concentrations of cRGD for 18 hours at 37° C incubator with 5% CO2. One set of cells served as untreated control. The cells were monitored under microscope for morphological changes. Most of the cRGD (10 µg/ml)-treated U-87MG (Figure 2; C=control) and U-373MG cells were rounded up. […] The number of viable cells (both treated and untreated) were then counted by trypan blue dye exclusion method using a hemacytometer (Hausser Scientific, Horsham, PA) and percent inhibition was calculated (Table 1).

U-251MG cells = experiment: as above; assay type: cell-based; details: 18 hours; for % inhibition: viable cells vs untreated control
Method: as §1, §2

U-373MG cells = experiment: as above; assay type: cell-based; details: 18 hours; for % inhibition: viable cells vs untreated control
Method: as §1, §2

U-87MG cells [3] = experiment: Effect of caspase-3 and caspase-9 inhibitors on cell death induced by cRGDfV (viable cell count, percent survival); assay type: cell-based, Human; details: U-87MG pretreated with DEVD-FMK (10 µM) or LEHD-FMK (10 µM) for 90 minutes; cRGDfV 20 µg/ml, 18 hours
Description: To determine whether the observed killing of glioma cells was due to apoptosis, we used inhibitors of caspase-3 (DEVD-FMK) and caspase-9 (LEHD-FMK), two of the cysteine aspartyl proteases, known to be involved in apoptosis (see Salvesen GS, Dixit VM (1997) Cell 91:443-446; Cohen GM (1997) Biochem J326:1-16; Janicke RU, Sprengart ML, Wati MR, Porter AG (1998) J Biol Chem 273:9357-9360; Cardone MH, Roy N, Stennicke, HR, Salvesen GS, Franke TF, Stanbridge E, Frisch S, Reed JC (1998) Science 282:1318-1321; Sakahira H, Enari M, Nagata S (1998) Nature 391:96-99). Caspase-3 is required for morphological changes and cleavage of poly(ADP-ribose) polymerase (PARP), a cellular enzyme implicated in DNA repair mechanism. Caspase-9 is involved in cytochrome c-induced apoptosis by activating procaspase-3 which finally leads to apoptosis. Briefly, U-87MG and U-251MG cells were harvested from monolayer culture and were treated with DEVD-FMK (10 µM) or LEHD-FMK (10 µM) for 90 minutes at 37°C. One set of cells without any inhibitor served as control. Cells were then washed and incubated in the presence or absence of cRGDfV (20 µg/ml) at 37°C, 5% CO2 for 18 hours. The number of viable cells, both in control and treated groups were counted and percent survival was determined.

Compound | effect on spheroid formation (U-87MG cells [1]; first study: 100µg peptide mixed with cells) | % inhibition (U-87MG cells [2]; 10 ug/ml) | % inhibition (U-87MG cells [2]; 20 ug/ml) | % inhibition (U-251MG cells; 10 ug/ml) | % inhibition (U-251MG cells; 20 ug/ml) | % inhibition (U-373MG cells; 10 ug/ml) | % inhibition (U-373MG cells; 20 ug/ml) | reduction of the size of the spheroids (U-87MG cells [1]; first study: 100µg peptide mixed with cells, vs untreated control) | effect on spheroid formation (U-87MG cells [1]; second study: cells grown 24 hours, 50 µg peptide) | number of viable cells after cRGDfV treatment (U-87MG cells [3]) | morphological changes (U-87MG cells [2]; 10 µg/ml) | morphological changes (U-251MG cells; 10 µg/ml) | morphological changes (U-373MG cells; 10 µg/ml)
N=C(N)NCCC[C@H](N)C(=O)NCC(=O)N[C@@H](CC(=O)O)C(=O)O [RGD, H-Arg-Gly-Asp-OH, reference compound] | did not appear to effect spheroid formation | 0% | 3.5% | 0% | 13% | 6.7% | 0% | – | – | – | – | – | –
cyclo(Arg-Gly-Asp-D-Phe-Val) [cRGD] | – | 52.9% | 70.6% | 0% | 5.9% | 46.7% | 80.0% | at least 70% | significant inhibitory effect on the spheroid formation | inability of cRGDfV to reduce the number of viable U-87MG cell | rounded up | no significant morphological changes | rounded up
